Experimental data reported in ChEMBL document CHEMBL1145498, “A systematic interaction map of validated kinase inhibitors with Ser/Thr kinases” (Proc Natl Acad Sci U S A, 2007).

Biological target: Dual specificity protein kinase CLK3 (Homo sapiens) (UniProt P49761)
Sequence (P49761 whole entry, looked up): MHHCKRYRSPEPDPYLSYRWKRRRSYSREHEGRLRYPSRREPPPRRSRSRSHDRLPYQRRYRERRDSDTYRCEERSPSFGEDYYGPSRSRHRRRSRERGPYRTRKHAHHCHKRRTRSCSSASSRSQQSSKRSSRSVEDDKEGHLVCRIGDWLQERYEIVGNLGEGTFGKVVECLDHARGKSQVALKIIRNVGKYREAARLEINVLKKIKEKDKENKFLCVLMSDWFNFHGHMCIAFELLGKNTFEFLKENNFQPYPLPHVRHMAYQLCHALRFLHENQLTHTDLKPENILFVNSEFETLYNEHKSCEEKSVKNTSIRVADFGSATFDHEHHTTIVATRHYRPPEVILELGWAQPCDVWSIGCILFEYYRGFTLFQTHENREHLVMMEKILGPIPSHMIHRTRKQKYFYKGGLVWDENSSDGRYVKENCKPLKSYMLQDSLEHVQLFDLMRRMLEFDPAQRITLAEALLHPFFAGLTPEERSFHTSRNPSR

Compound	ΔTm [°C]
C[C@@H](N)[C@H]1CC[C@H](C(=O)Nc2ccncc2)CC1	1
O=S(=O)(NCCNC/C=C/c1ccc(Br)cc1)c1cccc2cnccc12	1
O=C(O)/C=C/c1cc(CO)ccc1CO	0

Now from value to compound:

ΔTm [°C]	Compound
1.6	Nc1cc2ncnc(Nc3cccc(Br)c3)c2cc1N
8.3	NC1=NC(=O)/C(=C2\CCNC(=O)c3[nH]c(Br)cc32)N1 [HYMENIALDISINE]

Biological target: Calcium/calmodulin-dependent protein kinase type 1G (Homo sapiens) (UniProt Q96NX5)
Sequence (Q96NX5 whole entry): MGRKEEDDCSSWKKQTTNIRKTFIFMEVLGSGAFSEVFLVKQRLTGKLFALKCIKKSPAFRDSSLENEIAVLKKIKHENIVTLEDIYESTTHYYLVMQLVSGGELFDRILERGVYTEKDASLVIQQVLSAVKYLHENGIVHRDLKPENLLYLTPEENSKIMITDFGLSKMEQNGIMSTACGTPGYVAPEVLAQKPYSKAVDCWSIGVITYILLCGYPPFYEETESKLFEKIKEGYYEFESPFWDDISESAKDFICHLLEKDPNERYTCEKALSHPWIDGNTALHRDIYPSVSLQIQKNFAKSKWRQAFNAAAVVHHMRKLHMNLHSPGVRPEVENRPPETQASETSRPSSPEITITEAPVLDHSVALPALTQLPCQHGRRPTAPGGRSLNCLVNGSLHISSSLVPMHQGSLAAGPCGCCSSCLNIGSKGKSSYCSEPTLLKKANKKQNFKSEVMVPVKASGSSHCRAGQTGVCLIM

Compound	ΔTm [°C]
C[C@@H](N)[C@H]1CC[C@H](C(=O)Nc2ccncc2)CC1	-0.3
O=S(=O)(NCCNC/C=C/c1ccc(Br)cc1)c1cccc2cnccc12	0
O=C(O)/C=C/c1cc(CO)ccc1CO	0

Further lines, results first:

ΔTm [°C]	Compound
0.5	Nc1cc2ncnc(Nc3cccc(Br)c3)c2cc1N
-0.2	NC1=NC(=O)/C(=C2\CCNC(=O)c3[nH]c(Br)cc32)N1 [HYMENIALDISINE]

Biological target: T1, Serine/threonine-protein kinase 4 (Homo sapiens) (UniProt Q13043)
T1 sequence (whole entry): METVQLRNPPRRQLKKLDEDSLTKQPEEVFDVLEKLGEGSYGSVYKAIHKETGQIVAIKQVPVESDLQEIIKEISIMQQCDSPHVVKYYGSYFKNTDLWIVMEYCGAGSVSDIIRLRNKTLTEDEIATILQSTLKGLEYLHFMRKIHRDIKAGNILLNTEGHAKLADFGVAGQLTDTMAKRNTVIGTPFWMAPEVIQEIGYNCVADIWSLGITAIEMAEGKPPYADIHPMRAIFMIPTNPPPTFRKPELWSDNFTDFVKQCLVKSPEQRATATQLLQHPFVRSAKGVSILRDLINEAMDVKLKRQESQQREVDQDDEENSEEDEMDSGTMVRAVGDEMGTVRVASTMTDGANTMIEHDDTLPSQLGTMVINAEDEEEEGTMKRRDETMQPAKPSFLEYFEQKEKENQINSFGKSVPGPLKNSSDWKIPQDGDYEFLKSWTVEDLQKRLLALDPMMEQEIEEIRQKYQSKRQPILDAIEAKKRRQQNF

Compound	ΔTm [°C]
C[C@@H](N)[C@H]1CC[C@H](C(=O)Nc2ccncc2)CC1	1.4
O=S(=O)(NCCNC/C=C/c1ccc(Br)cc1)c1cccc2cnccc12	-0.2
O=C(O)/C=C/c1cc(CO)ccc1CO	0

The next lines start with the values.

ΔTm [°C]	Compound
2.7	Nc1cc2ncnc(Nc3cccc(Br)c3)c2cc1N
5.2	NC1=NC(=O)/C(=C2\CCNC(=O)c3[nH]c(Br)cc32)N1 [HYMENIALDISINE]

Biological target: Serine/threonine-protein kinase 10 (Homo sapiens) (UniProt O94804)
Sequence (O94804 whole entry, looked up): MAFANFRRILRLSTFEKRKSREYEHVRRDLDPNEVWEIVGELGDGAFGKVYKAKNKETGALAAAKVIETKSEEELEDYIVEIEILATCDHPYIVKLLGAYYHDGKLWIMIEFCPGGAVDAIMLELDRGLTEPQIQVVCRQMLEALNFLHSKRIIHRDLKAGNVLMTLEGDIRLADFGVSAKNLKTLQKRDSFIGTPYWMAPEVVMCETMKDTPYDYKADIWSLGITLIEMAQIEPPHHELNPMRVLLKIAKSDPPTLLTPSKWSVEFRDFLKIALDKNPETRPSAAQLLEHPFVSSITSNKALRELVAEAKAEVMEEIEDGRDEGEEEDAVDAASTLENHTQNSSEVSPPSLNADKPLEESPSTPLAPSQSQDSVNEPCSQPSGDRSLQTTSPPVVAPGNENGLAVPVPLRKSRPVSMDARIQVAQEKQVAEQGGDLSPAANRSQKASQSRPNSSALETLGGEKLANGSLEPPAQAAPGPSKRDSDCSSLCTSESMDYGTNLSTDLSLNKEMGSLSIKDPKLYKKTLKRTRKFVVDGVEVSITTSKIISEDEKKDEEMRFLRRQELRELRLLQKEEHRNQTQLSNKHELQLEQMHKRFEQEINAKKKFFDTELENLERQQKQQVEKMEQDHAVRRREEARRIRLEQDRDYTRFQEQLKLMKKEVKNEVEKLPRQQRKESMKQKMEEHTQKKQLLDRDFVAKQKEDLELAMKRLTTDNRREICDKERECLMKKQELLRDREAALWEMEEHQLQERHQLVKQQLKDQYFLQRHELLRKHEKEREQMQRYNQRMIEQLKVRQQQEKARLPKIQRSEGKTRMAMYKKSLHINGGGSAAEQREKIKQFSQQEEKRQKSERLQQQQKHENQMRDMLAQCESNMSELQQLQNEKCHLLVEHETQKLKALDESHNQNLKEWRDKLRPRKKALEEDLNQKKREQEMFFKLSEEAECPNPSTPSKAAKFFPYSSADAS

Compound	ΔTm [°C]
C[C@@H](N)[C@H]1CC[C@H](C(=O)Nc2ccncc2)CC1	1.2
O=S(=O)(NCCNC/C=C/c1ccc(Br)cc1)c1cccc2cnccc12	-0.4
O=C(O)/C=C/c1cc(CO)ccc1CO	0.5

Other lines, results leading:

ΔTm [°C]	Compound
6.1	Nc1cc2ncnc(Nc3cccc(Br)c3)c2cc1N
4.2	NC1=NC(=O)/C(=C2\CCNC(=O)c3[nH]c(Br)cc32)N1 [HYMENIALDISINE]

Biological target: Cyclin-dependent kinase 6 (Homo sapiens) (UniProt Q00534)
Sequence (Q00534 whole entry): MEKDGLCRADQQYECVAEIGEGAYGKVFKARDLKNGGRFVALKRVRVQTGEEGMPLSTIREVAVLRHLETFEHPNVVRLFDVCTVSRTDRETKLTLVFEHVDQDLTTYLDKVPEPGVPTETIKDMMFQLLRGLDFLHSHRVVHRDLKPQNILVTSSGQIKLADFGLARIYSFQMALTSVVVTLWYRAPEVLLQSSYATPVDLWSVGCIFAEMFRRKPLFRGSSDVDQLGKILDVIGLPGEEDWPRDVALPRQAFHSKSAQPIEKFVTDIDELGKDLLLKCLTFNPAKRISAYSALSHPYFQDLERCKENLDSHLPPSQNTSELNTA

Compound	ΔTm [°C]
C[C@@H](N)[C@H]1CC[C@H](C(=O)Nc2ccncc2)CC1	1
O=S(=O)(NCCNC/C=C/c1ccc(Br)cc1)c1cccc2cnccc12	-0.4
O=C(O)/C=C/c1cc(CO)ccc1CO	0.3

Further lines, results first:

ΔTm [°C]	Compound
0.8	Nc1cc2ncnc(Nc3cccc(Br)c3)c2cc1N
1.1	NC1=NC(=O)/C(=C2\CCNC(=O)c3[nH]c(Br)cc32)N1 [HYMENIALDISINE]

Biological target: Cyclin-dependent kinase 16 (Homo sapiens) (UniProt Q00536)
Sequence (Q00536 whole entry): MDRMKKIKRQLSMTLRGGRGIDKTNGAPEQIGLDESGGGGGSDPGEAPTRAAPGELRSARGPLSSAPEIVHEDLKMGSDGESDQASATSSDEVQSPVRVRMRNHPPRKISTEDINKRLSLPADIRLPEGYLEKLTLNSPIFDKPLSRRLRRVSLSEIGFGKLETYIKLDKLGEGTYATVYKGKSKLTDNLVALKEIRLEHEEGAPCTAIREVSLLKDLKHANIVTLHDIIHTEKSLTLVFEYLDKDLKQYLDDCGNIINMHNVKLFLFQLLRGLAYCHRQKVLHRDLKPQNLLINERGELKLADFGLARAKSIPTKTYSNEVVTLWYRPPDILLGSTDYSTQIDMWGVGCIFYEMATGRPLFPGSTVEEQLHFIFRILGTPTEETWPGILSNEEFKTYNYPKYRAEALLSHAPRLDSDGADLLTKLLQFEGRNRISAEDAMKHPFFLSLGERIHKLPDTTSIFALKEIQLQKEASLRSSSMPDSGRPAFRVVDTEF

Compound	ΔTm [°C]
C[C@@H](N)[C@H]1CC[C@H](C(=O)Nc2ccncc2)CC1	-0.7
O=S(=O)(NCCNC/C=C/c1ccc(Br)cc1)c1cccc2cnccc12	0.7
O=C(O)/C=C/c1cc(CO)ccc1CO	-0.2

The next lines start with the values.

ΔTm [°C]	Compound
-0.4	Nc1cc2ncnc(Nc3cccc(Br)c3)c2cc1N
0.1	NC1=NC(=O)/C(=C2\CCNC(=O)c3[nH]c(Br)cc32)N1 [HYMENIALDISINE]

Biological target: T2, Mitogen-activated protein kinase kinase kinase 5 (Homo sapiens) (UniProt Q99683)
T2 sequence (whole entry): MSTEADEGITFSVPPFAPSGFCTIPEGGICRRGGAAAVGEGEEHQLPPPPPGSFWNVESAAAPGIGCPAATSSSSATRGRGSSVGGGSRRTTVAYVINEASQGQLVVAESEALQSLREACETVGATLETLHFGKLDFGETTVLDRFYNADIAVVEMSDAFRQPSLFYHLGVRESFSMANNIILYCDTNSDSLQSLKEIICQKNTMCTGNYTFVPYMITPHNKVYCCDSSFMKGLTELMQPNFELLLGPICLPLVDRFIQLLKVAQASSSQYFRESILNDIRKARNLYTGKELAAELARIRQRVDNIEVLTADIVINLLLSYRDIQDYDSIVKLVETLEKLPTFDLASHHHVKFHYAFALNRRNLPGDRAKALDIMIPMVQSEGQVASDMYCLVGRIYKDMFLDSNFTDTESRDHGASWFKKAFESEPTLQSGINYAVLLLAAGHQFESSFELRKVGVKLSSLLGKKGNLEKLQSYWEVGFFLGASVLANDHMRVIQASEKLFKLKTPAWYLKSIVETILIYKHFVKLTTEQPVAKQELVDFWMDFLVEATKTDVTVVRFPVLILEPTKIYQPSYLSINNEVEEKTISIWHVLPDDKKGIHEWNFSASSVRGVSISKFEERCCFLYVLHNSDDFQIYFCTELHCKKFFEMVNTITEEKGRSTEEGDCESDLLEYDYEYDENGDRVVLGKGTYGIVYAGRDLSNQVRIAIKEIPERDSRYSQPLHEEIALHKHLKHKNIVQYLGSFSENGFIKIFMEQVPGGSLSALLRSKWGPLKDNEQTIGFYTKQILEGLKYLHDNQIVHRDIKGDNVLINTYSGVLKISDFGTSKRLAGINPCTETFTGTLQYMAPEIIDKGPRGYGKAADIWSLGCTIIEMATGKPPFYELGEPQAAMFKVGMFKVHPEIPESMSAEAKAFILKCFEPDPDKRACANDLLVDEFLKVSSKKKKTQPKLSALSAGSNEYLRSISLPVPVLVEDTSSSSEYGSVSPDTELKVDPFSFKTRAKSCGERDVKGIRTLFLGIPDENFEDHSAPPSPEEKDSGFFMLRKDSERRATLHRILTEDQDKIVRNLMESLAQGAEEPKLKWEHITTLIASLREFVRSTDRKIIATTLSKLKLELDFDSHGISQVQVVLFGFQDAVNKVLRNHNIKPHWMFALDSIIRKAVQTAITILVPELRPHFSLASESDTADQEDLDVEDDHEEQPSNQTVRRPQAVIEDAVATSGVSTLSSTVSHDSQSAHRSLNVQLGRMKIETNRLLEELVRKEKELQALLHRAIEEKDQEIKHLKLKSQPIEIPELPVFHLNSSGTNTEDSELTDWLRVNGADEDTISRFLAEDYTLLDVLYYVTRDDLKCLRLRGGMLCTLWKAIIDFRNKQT

Compound	ΔTm [°C]
C[C@@H](N)[C@H]1CC[C@H](C(=O)Nc2ccncc2)CC1	1.1
O=S(=O)(NCCNC/C=C/c1ccc(Br)cc1)c1cccc2cnccc12	-0.3
O=C(O)/C=C/c1cc(CO)ccc1CO	1.2

The next lines start with the values.

ΔTm [°C]	Compound
0.4	Nc1cc2ncnc(Nc3cccc(Br)c3)c2cc1N
10.4	NC1=NC(=O)/C(=C2\CCNC(=O)c3[nH]c(Br)cc32)N1 [HYMENIALDISINE]

Biological target: Serine/threonine-protein kinase PLK1 (Homo sapiens) (UniProt P53350)
Sequence (P53350 whole entry): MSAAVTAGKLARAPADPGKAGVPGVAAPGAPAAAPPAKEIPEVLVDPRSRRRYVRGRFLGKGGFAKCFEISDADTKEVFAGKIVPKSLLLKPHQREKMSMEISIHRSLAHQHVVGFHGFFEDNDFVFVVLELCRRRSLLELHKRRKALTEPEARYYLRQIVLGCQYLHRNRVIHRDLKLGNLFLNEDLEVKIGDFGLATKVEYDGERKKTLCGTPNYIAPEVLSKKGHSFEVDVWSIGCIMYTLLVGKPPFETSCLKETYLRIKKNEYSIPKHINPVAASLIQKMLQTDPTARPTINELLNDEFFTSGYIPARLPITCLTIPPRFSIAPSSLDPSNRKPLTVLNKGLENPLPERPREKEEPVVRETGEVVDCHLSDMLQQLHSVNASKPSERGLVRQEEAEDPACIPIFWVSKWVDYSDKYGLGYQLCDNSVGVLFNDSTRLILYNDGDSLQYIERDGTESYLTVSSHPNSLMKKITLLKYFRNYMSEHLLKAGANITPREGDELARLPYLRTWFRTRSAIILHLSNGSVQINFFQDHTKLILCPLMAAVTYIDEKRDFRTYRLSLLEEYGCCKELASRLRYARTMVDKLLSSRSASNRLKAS

Compound	ΔTm [°C]
C[C@@H](N)[C@H]1CC[C@H](C(=O)Nc2ccncc2)CC1	-0.2
O=S(=O)(NCCNC/C=C/c1ccc(Br)cc1)c1cccc2cnccc12	1
O=C(O)/C=C/c1cc(CO)ccc1CO	0.3

Further lines, results first:

ΔTm [°C]	Compound
-1.4	Nc1cc2ncnc(Nc3cccc(Br)c3)c2cc1N
5.8	NC1=NC(=O)/C(=C2\CCNC(=O)c3[nH]c(Br)cc32)N1 [HYMENIALDISINE]

Biological target: T3, Serine/threonine-protein kinase Nek2 (Homo sapiens) (UniProt P51955)
T3 sequence (whole entry): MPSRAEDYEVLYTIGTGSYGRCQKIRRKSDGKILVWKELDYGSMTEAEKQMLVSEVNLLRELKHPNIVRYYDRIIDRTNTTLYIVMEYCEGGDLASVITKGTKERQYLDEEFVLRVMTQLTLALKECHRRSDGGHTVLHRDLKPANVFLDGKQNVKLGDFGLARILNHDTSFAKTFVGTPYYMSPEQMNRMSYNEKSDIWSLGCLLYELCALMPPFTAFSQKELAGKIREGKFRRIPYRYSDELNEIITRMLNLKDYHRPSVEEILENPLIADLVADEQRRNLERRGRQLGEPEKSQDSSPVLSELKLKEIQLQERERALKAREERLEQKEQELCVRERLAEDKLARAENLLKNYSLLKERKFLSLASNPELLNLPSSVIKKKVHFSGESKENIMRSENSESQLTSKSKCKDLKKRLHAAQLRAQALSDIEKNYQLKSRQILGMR

Compound	ΔTm [°C]
C[C@@H](N)[C@H]1CC[C@H](C(=O)Nc2ccncc2)CC1	-0.1
O=S(=O)(NCCNC/C=C/c1ccc(Br)cc1)c1cccc2cnccc12	-0.2
O=C(O)/C=C/c1cc(CO)ccc1CO	1

Now from value to compound:

ΔTm [°C]	Compound
3.3	Nc1cc2ncnc(Nc3cccc(Br)c3)c2cc1N
0.8	NC1=NC(=O)/C(=C2\CCNC(=O)c3[nH]c(Br)cc32)N1 [HYMENIALDISINE]

Biological target: Mitogen-activated protein kinase 6 (Homo sapiens) (UniProt Q16659)
Sequence (Q16659 whole entry): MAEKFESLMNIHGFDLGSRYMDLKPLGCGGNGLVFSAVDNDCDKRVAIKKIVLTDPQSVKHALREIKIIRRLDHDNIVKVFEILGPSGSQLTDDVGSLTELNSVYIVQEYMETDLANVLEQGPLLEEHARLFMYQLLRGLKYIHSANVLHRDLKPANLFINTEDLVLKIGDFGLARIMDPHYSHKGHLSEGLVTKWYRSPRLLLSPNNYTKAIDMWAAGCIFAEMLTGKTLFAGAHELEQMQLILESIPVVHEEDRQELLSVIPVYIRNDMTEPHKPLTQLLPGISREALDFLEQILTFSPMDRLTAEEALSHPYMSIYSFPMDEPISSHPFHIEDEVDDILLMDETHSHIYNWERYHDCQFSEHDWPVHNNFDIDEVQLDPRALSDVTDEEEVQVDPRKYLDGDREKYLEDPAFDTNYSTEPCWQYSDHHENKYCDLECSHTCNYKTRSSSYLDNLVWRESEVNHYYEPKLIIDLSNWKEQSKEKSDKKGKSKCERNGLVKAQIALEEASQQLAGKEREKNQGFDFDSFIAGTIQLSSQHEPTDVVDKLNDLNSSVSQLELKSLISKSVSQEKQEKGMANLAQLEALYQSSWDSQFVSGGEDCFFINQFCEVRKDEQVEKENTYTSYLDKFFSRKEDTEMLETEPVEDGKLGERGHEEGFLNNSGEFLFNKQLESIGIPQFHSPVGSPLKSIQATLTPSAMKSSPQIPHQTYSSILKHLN

Compound	ΔTm [°C]
C[C@@H](N)[C@H]1CC[C@H](C(=O)Nc2ccncc2)CC1	-0.1
O=S(=O)(NCCNC/C=C/c1ccc(Br)cc1)c1cccc2cnccc12	0.4
O=C(O)/C=C/c1cc(CO)ccc1CO	0.3

More lines, now with the values ahead:

ΔTm [°C]	Compound
0.6	Nc1cc2ncnc(Nc3cccc(Br)c3)c2cc1N
-0.1	NC1=NC(=O)/C(=C2\CCNC(=O)c3[nH]c(Br)cc32)N1 [HYMENIALDISINE]
